# Data: ChEMBL document CHEMBL3822358 (J Med Chem, 2016)
# The source made the active and inactive calls. No cut-off for these calls is given here.
# Tested on: not listed separately
# Test: cells
# Settings: Homo sapiens, KARPAS-299, 72 h
# Description: Antiproliferative activity against human ALK-positive KARPAS299 cells assessed as reduction in cell viability measured after 72 hrs by CellTiter 96 aqueous one solution cell proliferation assay
row,Structure (SMILES),IC50 [nM]
1,COc1cc(N2CCN(C)CC2)ccc1Nc1ncc(Cl)c(Nc2ccccc2P(C)(C)=O)n1,28.3

# Tested on: not listed separately
# Test: AUC (0 to 24 hrs) in mouse at 10 mg/kg, po by LC-MS/MS analysis
# Type: ADME, organism-based
# Parameters: time < 24 hr, dose 10 mg/kg, route oral
# Settings: in vivo
row,Structure (SMILES),AUC(0-t) at 24 h [ng·h/mL]
1,COc1cc(N2CCN(C)CC2)ccc1Nc1ncc(Cl)c(Nc2ccccc2P(C)(C)=O)n1,5180

# Tested on: Mus musculus
# Test: Toxicity in SCID/beige mouse xenografted with human KARPAS299 cells expressing […] fusion protein at 50 mg/kg, po administered once daily for 13 days
# Type: organism-based, KARPAS-299
# Settings: in vivo, 312 h
row,Structure (SMILES),Activity
1,COc1cc(N2CCN(C)CC2)ccc1Nc1ncc(Cl)c(Nc2ccccc2P(C)(C)=O)n1,Non-toxic

# Tested on: not listed separately
# Test: Oral bioavailability in CD rat at 10 mg/kg by LC-MS/MS analysis
# Type: ADME, organism-based
# Settings: in vivo
row,Structure (SMILES),bioavailability [%]
1,COc1cc(N2CCN(C)CC2)ccc1Nc1ncc(Cl)c(Nc2ccccc2P(C)(C)=O)n1,39

# Tested on: not listed separately
# Test: Clearance in CD rat at 3 mg/kg, iv by LC-MS/MS analysis
# Type: ADME, organism-based
# Settings: in vivo
row,Structure (SMILES),clearance [mL/min/kg]
1,COc1cc(N2CCN(C)CC2)ccc1Nc1ncc(Cl)c(Nc2ccccc2P(C)(C)=O)n1,15.2

# Tested on: not listed separately
# Test: Cmax in CD rat at 10 mg/kg, po by LC-MS/MS analysis
# Type: ADME, organism-based
# Parameters: dose 10 mg/kg, route oral
# Settings: in vivo
row,Structure (SMILES),Cmax [ng/mL]
1,COc1cc(N2CCN(C)CC2)ccc1Nc1ncc(Cl)c(Nc2ccccc2P(C)(C)=O)n1,254

# Tested on: not listed separately
# Test: Volume of distribution at steady state in CD rat at 3 mg/kg, iv by LC-MS/MS analysis
# Type: ADME, organism-based
# Settings: CD, in vivo, read-out: Vdss
row,Structure (SMILES),Vd [L/kg]
1,COc1cc(N2CCN(C)CC2)ccc1Nc1ncc(Cl)c(Nc2ccccc2P(C)(C)=O)n1,6.12

# Molecular target: Insulin receptor (Homo sapiens, UniProt P06213)
# Test: not given
# Settings: not given
row,Structure (SMILES),IC50 [nM]
1,COc1cc(N2CCN(C)CC2)ccc1Nc1ncc(Cl)c(Nc2ccccc2P(C)(C)=O)n1,90.6

# Tested on: not listed separately
# Test: Half life in mouse at 10 mg/kg, po by LC-MS/MS analysis
# Type: ADME, organism-based
# Settings: in vivo
row,Structure (SMILES),half-life [h]
1,COc1cc(N2CCN(C)CC2)ccc1Nc1ncc(Cl)c(Nc2ccccc2P(C)(C)=O)n1,2.7

# Molecular target: T1, ALK tyrosine kinase receptor (Homo sapiens, UniProt Q9UM73)
# Test: Inhibition of ALK phosphorylation in mouse xenografted with human KARPAS299 cells assessed as p-ALK level at 25 mg/kg, po administered as single dose measured after 10 hrs relative to 2 hrs vehicle-treated tumor
# Type: organism-based
# Parameters: scale not given: the % may be the effect or the level left
# Settings: KARPAS-299
# Target sequence in this assay (Q9UM73 19-1620 limits assumed): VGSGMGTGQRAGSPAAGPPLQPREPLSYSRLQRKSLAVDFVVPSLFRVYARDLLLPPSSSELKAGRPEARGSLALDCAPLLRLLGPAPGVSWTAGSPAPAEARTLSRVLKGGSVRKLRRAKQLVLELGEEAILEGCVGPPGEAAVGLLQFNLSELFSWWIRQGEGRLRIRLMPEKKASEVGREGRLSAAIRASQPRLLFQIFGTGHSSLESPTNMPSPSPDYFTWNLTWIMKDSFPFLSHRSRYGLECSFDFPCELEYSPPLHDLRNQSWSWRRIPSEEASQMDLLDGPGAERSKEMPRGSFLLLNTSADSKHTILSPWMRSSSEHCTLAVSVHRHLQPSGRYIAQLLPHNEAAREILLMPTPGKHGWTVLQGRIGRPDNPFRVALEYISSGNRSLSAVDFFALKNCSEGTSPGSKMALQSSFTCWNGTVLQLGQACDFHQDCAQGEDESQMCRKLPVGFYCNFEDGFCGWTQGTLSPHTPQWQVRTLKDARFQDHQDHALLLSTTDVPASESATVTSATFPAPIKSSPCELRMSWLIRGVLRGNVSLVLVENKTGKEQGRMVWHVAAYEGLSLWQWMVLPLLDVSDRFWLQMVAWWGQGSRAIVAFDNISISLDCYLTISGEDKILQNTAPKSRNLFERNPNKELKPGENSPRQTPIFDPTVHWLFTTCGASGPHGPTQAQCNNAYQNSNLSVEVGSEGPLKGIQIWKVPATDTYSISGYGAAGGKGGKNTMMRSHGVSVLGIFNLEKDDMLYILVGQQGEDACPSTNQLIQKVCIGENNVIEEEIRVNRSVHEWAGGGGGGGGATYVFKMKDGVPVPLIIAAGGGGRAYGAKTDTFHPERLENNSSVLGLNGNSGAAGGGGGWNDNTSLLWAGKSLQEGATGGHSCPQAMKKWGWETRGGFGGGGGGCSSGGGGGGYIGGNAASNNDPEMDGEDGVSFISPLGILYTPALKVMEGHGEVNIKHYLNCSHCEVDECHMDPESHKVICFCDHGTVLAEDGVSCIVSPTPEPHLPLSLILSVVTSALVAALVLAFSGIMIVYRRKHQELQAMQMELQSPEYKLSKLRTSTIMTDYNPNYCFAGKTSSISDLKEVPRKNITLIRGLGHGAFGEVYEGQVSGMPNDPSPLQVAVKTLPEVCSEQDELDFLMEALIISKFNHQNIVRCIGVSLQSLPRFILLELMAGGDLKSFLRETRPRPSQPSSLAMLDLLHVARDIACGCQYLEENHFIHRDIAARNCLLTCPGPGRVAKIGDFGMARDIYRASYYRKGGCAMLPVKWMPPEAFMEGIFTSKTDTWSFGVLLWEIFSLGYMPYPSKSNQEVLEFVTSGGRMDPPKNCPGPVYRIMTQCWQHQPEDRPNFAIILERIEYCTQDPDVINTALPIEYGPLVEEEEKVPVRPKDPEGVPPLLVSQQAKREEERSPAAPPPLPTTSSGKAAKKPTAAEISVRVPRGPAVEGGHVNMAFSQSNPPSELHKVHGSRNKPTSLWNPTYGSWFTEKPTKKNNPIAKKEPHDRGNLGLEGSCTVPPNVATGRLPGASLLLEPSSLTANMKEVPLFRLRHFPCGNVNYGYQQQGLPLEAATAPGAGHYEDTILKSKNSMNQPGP
row,Structure (SMILES),Activity [%]
1,COc1cc(N2CCN(C)CC2)ccc1Nc1ncc(Cl)c(Nc2ccccc2P(C)(C)=O)n1,2

# Tested on: KARPAS-299
# Test: Antitumor activity against human KARPAS299 cells expressing […] fusion protein xenografted in SCID/beige mouse assessed as tumor stasis at 50 mg/kg, po administered once daily for 13 days
# Type: functional, organism-based
# Settings: not given
row,Structure (SMILES),Activity
1,COc1cc(N2CCN(C)CC2)ccc1Nc1ncc(Cl)c(Nc2ccccc2P(C)(C)=O)n1,Active

# Tested on: not listed separately
# Test: Cmax in mouse at 10 mg/kg, po by LC-MS/MS analysis
# Type: ADME, organism-based
# Parameters: dose 10 mg/kg, route oral
# Settings: in vivo
row,Structure (SMILES),Cmax [ng/mL]
1,COc1cc(N2CCN(C)CC2)ccc1Nc1ncc(Cl)c(Nc2ccccc2P(C)(C)=O)n1,418

# Tested on: not listed separately
# Test: animal or person
# Settings: Homo sapiens, KARPAS-299, po, 312 h, read-out: TGI
# Description: Antitumor activity against human KARPAS299 cells expressing NMP-ALK fusion protein xenografted in SCID/beige mouse assessed as tumor growth inhibition at 50 mg/kg, po administered once daily for 13 days relative to untreated control
row,Structure (SMILES),inhibition in vivo at 50 mg/kg [%]
1,COc1cc(N2CCN(C)CC2)ccc1Nc1ncc(Cl)c(Nc2ccccc2P(C)(C)=O)n1,1.4

# Tested on: not listed separately
# Test: AUC (0 to infinity) in CD rat at 3 mg/kg, iv by LC-MS/MS analysis
# Type: ADME, organism-based
# Parameters: dose 3 mg/kg, time infinity, route intravenous
# Settings: CD, in vivo
row,Structure (SMILES),AUC(0-inf) [ng·h/mL]
1,COc1cc(N2CCN(C)CC2)ccc1Nc1ncc(Cl)c(Nc2ccccc2P(C)(C)=O)n1,3090

# Molecular target: T1, ALK tyrosine kinase receptor
# Test: not given
# Settings: not given
# Target sequence in this assay (Q9UM73 whole entry): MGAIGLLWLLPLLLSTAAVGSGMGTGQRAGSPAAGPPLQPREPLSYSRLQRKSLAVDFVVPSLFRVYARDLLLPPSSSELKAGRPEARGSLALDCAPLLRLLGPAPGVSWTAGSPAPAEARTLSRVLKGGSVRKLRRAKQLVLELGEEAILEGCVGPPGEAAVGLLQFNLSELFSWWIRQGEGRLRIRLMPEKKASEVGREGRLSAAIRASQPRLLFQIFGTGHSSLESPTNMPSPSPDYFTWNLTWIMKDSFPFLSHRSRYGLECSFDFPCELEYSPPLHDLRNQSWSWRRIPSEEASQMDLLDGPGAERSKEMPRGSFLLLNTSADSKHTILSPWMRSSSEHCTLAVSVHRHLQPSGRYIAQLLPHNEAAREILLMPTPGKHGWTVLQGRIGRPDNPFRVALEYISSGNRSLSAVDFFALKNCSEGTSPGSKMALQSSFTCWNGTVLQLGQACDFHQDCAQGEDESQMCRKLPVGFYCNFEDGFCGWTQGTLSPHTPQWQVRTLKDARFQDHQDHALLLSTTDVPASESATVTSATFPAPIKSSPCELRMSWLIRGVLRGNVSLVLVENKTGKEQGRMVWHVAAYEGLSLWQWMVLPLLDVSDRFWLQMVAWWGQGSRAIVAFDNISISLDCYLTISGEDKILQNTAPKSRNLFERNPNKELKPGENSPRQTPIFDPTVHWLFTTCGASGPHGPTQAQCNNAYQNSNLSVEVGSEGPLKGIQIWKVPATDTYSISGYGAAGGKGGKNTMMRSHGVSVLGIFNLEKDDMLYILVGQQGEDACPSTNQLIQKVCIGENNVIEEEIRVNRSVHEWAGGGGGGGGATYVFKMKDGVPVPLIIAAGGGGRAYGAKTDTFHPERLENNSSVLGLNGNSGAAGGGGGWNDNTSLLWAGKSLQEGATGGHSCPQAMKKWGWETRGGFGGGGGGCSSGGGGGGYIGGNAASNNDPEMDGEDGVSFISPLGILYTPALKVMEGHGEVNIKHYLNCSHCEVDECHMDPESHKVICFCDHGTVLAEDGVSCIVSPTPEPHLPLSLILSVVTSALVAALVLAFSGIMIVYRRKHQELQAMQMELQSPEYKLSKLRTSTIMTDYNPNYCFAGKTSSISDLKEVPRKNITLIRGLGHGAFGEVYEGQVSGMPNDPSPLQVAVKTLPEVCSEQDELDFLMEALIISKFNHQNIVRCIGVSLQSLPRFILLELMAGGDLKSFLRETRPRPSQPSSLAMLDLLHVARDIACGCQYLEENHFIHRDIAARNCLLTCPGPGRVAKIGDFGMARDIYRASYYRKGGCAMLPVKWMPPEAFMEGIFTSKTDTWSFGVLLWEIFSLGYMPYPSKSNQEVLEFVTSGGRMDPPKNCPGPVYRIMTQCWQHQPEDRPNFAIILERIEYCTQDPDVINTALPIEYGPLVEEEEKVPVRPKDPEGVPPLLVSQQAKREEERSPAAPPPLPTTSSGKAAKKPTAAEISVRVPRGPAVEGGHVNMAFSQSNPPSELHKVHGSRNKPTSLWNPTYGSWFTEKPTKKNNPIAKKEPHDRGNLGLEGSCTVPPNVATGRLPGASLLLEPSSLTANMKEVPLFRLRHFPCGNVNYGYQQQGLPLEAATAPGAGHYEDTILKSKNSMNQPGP
row,Structure (SMILES),IC50 [nM]
1,COc1cc(N2CCN(C)CC2)ccc1Nc1ncc(Cl)c(Nc2ccccc2P(C)(C)=O)n1,0.18

# Tested on: not listed separately
# Test: Half life in CD rat at 10 mg/kg, po by LC-MS/MS analysis
# Type: ADME, organism-based
# Settings: in vivo
row,Structure (SMILES),half-life [h]
1,COc1cc(N2CCN(C)CC2)ccc1Nc1ncc(Cl)c(Nc2ccccc2P(C)(C)=O)n1,12.5

# Molecular target: Insulin-like growth factor 1 receptor (Homo sapiens, UniProt P08069)
# Test: not given
# Settings: not given
# Insulin-like growth factor 1 receptor, sequence (P08069 31-736 limits assumed): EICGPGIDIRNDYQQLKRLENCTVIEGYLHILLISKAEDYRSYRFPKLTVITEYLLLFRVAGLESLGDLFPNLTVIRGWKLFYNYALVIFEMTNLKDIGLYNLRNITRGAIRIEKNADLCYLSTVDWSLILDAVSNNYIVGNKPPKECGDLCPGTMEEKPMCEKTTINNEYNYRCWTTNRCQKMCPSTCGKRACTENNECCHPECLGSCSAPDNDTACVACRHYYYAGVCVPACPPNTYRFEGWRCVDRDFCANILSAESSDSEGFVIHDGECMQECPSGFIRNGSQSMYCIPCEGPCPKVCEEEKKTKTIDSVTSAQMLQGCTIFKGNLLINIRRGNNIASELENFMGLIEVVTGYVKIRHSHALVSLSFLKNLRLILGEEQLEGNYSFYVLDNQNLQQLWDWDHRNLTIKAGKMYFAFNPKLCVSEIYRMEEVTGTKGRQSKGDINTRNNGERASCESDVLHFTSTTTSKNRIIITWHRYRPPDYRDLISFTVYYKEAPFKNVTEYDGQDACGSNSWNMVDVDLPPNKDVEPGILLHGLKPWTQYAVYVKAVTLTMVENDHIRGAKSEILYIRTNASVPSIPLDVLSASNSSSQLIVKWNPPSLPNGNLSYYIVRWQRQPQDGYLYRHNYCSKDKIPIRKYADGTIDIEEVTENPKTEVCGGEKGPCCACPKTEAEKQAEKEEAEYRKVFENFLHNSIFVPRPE
# Insulin-like growth factor 1 receptor, sequence (P08069 741-1367 limits assumed): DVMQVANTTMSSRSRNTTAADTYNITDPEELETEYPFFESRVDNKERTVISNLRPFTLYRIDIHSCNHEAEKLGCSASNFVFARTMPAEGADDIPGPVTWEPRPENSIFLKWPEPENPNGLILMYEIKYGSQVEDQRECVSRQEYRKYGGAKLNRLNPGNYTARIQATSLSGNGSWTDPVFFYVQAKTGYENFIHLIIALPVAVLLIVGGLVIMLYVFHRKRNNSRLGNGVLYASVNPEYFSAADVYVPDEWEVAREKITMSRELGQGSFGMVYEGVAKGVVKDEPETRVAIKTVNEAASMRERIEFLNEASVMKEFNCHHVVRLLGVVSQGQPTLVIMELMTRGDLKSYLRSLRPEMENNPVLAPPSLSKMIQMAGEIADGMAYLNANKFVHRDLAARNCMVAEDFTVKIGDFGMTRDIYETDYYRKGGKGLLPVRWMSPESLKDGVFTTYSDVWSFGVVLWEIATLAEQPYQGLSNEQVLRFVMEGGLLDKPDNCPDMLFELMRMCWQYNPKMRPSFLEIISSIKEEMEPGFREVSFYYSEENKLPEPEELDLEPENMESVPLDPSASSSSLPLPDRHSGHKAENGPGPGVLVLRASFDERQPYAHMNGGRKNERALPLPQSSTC
row,Structure (SMILES),IC50 [nM]
1,COc1cc(N2CCN(C)CC2)ccc1Nc1ncc(Cl)c(Nc2ccccc2P(C)(C)=O)n1,20.3

# Tested on: not listed separately
# Test: animal or person
# Settings: Homo sapiens, KARPAS-299, po, 312 h, read-out: TGI
# Remark: another data set of the same source
# Description: Antitumor activity against human KARPAS299 cells expressing NMP-ALK fusion protein xenografted in SCID/beige mouse assessed as tumor growth inhibition at 10 mg/kg, po administered once daily for 13 days relative to untreated control
row,Structure (SMILES),inhibition in vivo at 10 mg/kg [%]
1,COc1cc(N2CCN(C)CC2)ccc1Nc1ncc(Cl)c(Nc2ccccc2P(C)(C)=O)n1,81

# Tested on: not listed separately
# Test: Half life in CD rat at 3 mg/kg, iv by LC-MS/MS analysis
# Type: ADME, organism-based
# Settings: CD, in vivo
row,Structure (SMILES),half-life [h]
1,COc1cc(N2CCN(C)CC2)ccc1Nc1ncc(Cl)c(Nc2ccccc2P(C)(C)=O)n1,6.6

# Tested on: not listed separately
# Test: cells
# Settings: Homo sapiens, U-937, 72 h
# Description: Antiproliferative activity against human ALK-negative U937 cells assessed as reduction in cell viability measured after 72 hrs by CellTiter 96 aqueous one solution cell proliferation assay
row,Structure (SMILES),IC50 [nM]
1,COc1cc(N2CCN(C)CC2)ccc1Nc1ncc(Cl)c(Nc2ccccc2P(C)(C)=O)n1,1590

# Tested on: not listed separately
# Test: Tmax in CD rat at 10 mg/kg, po by LC-MS/MS analysis
# Type: ADME, organism-based
# Settings: in vivo
row,Structure (SMILES),Tmax [h]
1,COc1cc(N2CCN(C)CC2)ccc1Nc1ncc(Cl)c(Nc2ccccc2P(C)(C)=O)n1,6

# Molecular target: T1, ALK tyrosine kinase receptor
# Test: Inhibition of ALK phosphorylation in mouse xenografted with human KARPAS299 cells assessed as p-ALK level at 25 mg/kg, po administered as single dose measured after 16 hrs relative to 2 hrs vehicle-treated tumor
# Type: organism-based
# Parameters: scale not given: the % may be the effect or the level left
# Settings: KARPAS-299
# Target sequence in this assay (Q9UM73 19-1620 limits assumed): as the sequence (Q9UM73 19-1620 limits assumed) above
row,Structure (SMILES),Activity [%]
1,COc1cc(N2CCN(C)CC2)ccc1Nc1ncc(Cl)c(Nc2ccccc2P(C)(C)=O)n1,14

# Tested on: not listed separately
# Test: AUC (0 to infinity) in CD rat at 10 mg/kg, po by LC-MS/MS analysis
# Type: ADME, organism-based
# Parameters: dose 10 mg/kg, route oral, time infinity
# Settings: in vivo
row,Structure (SMILES),AUC(0-inf) [ng·h/mL]
1,COc1cc(N2CCN(C)CC2)ccc1Nc1ncc(Cl)c(Nc2ccccc2P(C)(C)=O)n1,4060

# Molecular target: T1, ALK tyrosine kinase receptor
# Test: Inhibition of ALK phosphorylation in mouse xenografted with human KARPAS299 cells assessed as p-ALK level at 25 mg/kg, po administered as single dose measured after 24 hrs relative to 2 hrs vehicle-treated tumor
# Type: organism-based
# Parameters: scale not given: the % may be the effect or the level left
# Settings: KARPAS-299
# Target sequence in this assay (Q9UM73 19-1620 limits assumed): as above
row,Structure (SMILES),Activity [%]
1,COc1cc(N2CCN(C)CC2)ccc1Nc1ncc(Cl)c(Nc2ccccc2P(C)(C)=O)n1,94

# Tested on: KARPAS-299
# Test: Antitumor activity against human KARPAS299 cells xenografted in SCID/beige mouse assessed as tumor growth inhibition administered orally once daily for 13 days relative to untreated control
# Type: functional, cell-based
# Settings: not given
row,Structure (SMILES),TGI
1,COc1cc(N2CCN(C)CC2)ccc1Nc1ncc(Cl)c(Nc2ccccc2P(C)(C)=O)n1,Dose-dependent effect

# Tested on: not listed separately
# Test: animal or person
# Settings: Homo sapiens, KARPAS-299, po, 312 h, read-out: TGI
# Remark: another data set of the same source
# Description: Antitumor activity against human KARPAS299 cells expressing NMP-ALK fusion protein xenografted in SCID/beige mouse assessed as tumor growth inhibition at 25 mg/kg, po administered once daily for 13 days relative to untreated control
row,Structure (SMILES),inhibition in vivo at 25 mg/kg [%]
1,COc1cc(N2CCN(C)CC2)ccc1Nc1ncc(Cl)c(Nc2ccccc2P(C)(C)=O)n1,41
